Measured values reported in patent publication US20150141375A1 (priority 2009, published 2015).

Tests used:
Mad-4 JCV = assay: JCV (Mad-4) initial infection of SVG cells (in situ DNA hybridization, qPCR)
RPTECs = assay: RPTEC DNA replication (BrdU), metabolic activity (WST-1), proliferation (xCELLigence); assay type: cell-based, human; conditions: for reduction of rate of RPTEC proliferation (xCelligence): CMX001 0.31 μM, 48 h postexposure
Description: (§1) RPTECs were infected with BKV(Dunlop). CMX001 was added before and 2 h postinfection (hpi). Cells and supernatants were harvested 24-72 hpi. BKV replication was examined by TaqMan assays, western blotting, IF staining and viability of RPTECs was examined by WST-1 assay, BrdU incorporation and a TaqMan assay.
(§2) To use more sensitive assays, host cell DNA replication and metabolic activity using BrdU incorporation and WST-1 assays in uninfected RPTECs were used. Addition of CMX001 reduced both DNA replication (FIG. 2a) and metabolic activity (FIG. 2b) of uninfected RPTECs in a concentration-dependent manner. Compared to untreated RPTECs, CMX001 at 0.08 to 10 μM decreased DNA replication by 15% to 93% and the metabolic activity by 41% to 88%, respectively.
(§3) The mitocondrial metabolic activity was monitored by the colorimetric WST-1 assay (Roche, Rotkreuz, Switzerland) measuring reduction of the Tetrazolium salt, WST-1, by mitochondrial dehydrogenases. DNA synthesis was quantified by colorimetric measurement of BrdU incorporation into DNA using the “Cell proliferation ELISA, BrdU” kit (Roche). The attachment and proliferation of the cells was measured as impedance using E-plates and the xCelligence system (Roche). In order for the RPTECs to attach and proliferate on the E-plates, the plates were first coated with fibronectin. Next the background impedance of the plates was monitored by addition of 100 μl medium to each well, before the plate was connected to the system and checked in the cell culture incubator for proper electrical-contacts. Subsequently, 100 μl cell suspension containing the indicated cell numbers was seeded. To determine the effect of BKV infection and CMX001 treatment, about 24 h after seeding 150 μl of the media was replaced with fresh media with or without purified BKV-Dunlop in the presence or absence of CMX001 (final concentration of 0.31 μM). The cells were grown for 96 h and impedance was measured every 15 minutes for the first 6 h then every 30 minutes. Impedance was expressed as an arbitrary unit called the Cell Index.

[1] = as above; assay type: cell-based, human; conditions: human; BKV-infected RPTECs; read-out: CC-90 (BrdU incorporation reduced to approximately 10% of untreated infected cells)
Description: as §1, §2, §3

With `CCCCCCCCCCCCCCCCOCCCOP(=O)(O)CO[C@H](CO)Cn1ccc(N)nc1=O` [CMX001, Hexadecyloxypropyl-cidofovir] the “reduction in percentage of JCV DNA containing cells” value (from here on “reduction in percentage”) (Mad-4 JCV; 0.03 μM, 4 days) was 46%, the “decrease in number of JCV genome copies (qPCR)” value (Mad-4 JCV; 0.07 μM, 4 days) was 57% and the “reduction in percentage” value (Mad-4 JCV; 0.07 μM, 4 days) was 57%. For the same compound, the “maximal suppression of JCV DNA containing cells, normalized to total cell number” value (Mad-4 JCV; 0.1 μM) was 52%, the “reduction in percentage” value (Mad-4 JCV; 0.1 μM, 4 days) was 71% and the EC50 (Mad-4 JCV; JC polyomavirus, read-out: EC50, JCV copy number) was 0.045 µM. For the same compound, the “reduction of rate of RPTEC proliferation (xCelligence)” value (RPTECs; exponentially growing BKV infected cells) was “approximately 35%”, the “reduction of rate of RPTEC proliferation (xCelligence)” value (RPTECs; exponentially growing uninfected cells) was “approximately 25%” and the SI-90 (RPTECs; estimated, RPTECs) was 62.5. The CC90 [1] was 10 µM.
